Where “and” joins values, the source holds several entries; their conditions need not be identical. Equal values may be shown once.
Experiments:
[1] = Plasma concentrations of DM after oral DM with or without quinidine (HPLC); assay type: in vivo, human; details: blood sampled 10-12 hours later, per volunteer
Procedure: Five patients with a symptom of having premature ejaculation were orally administered 120 mg of DM, with no co-administration of quinidine. Between 10 and 12 hours later, blood was sampled, blood plasma was isolated by centrifugation, and the plasma was analyzed to determine the DM concentration using the HPLC method. During a different week, the same patients were orally administered 60 mg of DM (half the control dosage) and 150 mg of quinidine. Between 10 and 12 hours later, blood was sampled and the plasma was analyzed for DM using thebaine/HPLC. The results, in Table 1, indicate that quinidine causes a major increase in the concentration of DM in the blood plasma.

cyclooxygenase-2 (COX-2) = cyclooxygenase-2 (COX-2) (Homo sapiens, UniProt P35354); details: cited from earlier work
Sequence of cyclooxygenase-2 (COX-2) (P35354 18-604, species assumed): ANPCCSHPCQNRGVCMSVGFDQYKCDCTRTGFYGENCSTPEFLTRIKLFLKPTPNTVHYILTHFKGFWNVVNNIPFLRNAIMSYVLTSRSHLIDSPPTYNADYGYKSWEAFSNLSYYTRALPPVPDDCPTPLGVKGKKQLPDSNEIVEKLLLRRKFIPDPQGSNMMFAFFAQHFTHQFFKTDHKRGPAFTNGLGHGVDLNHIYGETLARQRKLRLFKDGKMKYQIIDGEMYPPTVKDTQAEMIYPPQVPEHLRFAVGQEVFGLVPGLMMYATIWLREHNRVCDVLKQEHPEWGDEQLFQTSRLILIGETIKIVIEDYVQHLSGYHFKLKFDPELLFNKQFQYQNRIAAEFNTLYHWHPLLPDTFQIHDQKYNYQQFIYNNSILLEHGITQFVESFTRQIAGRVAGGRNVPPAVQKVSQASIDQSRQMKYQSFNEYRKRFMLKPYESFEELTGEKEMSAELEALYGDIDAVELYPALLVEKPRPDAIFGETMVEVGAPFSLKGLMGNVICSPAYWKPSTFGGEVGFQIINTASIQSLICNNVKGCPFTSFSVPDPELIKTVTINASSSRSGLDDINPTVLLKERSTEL

[2] = target: phosphodiesterase type 5 (PDE5) (Homo sapiens, UniProt O76074); details: in vitro; PDE5 vs PDE6; cited from earlier work
[3] = oral administration, Viagra formulation; cited from earlier work

With `COc1ccc2c(c1)[C@@]13CCCC[C@H]1[C@@H](C2)N(C)CC3` [DM, (+)-3-methoxy-N-methylmorphinan] the “PLASMA CONCENTRATION of DM” value ([1]; 60 mg DM + 150 mg quinidine oral) was 34.2 ng/mL and 42.4 ng/mL and 30.2 ng/mL and 26.8 ng/mL and 10.2 ng/mL and the “PLASMA CONCENTRATION of DM” value ([1]; 120 mg DM oral, quinidine 0 mg) was 13.5 ng/mL and 15.4 ng/mL and <1 ng/mL (2×) and 5.7 ng/mL.
For `CS(=O)(=O)c1ccc(C2=C(c3ccccc3)C(=O)OC2)cc1` [rofecoxib], the “specificity for inhibiting COX-2 (over COX-1)” value (cyclooxygenase-2 (COX-2)) is given as “about 350 fold”.
In the case of `CCCc1nn(C)c2c(=O)[nH]c(-c3cc(S(=O)(=O)N4CCN(C)CC4)ccc3OCC)nc12` [sildenafil, 1-[[3-(6,7-dihydro-1-methyl-7-oxo-3-propyl-1H-pyrazolo[4,3-d]pyrimidin-5-yl)-4-ethoxyphenyl]sulfonyl]-4-methyl piperazine], the “potency for PDE5 compared to PDE6” value [2] is given as “about 10 fold” and the absolute bioavailability [3] is given as “about 40%”.

Reference: US7754767B2, “Method for treatment of premature ejaculation in humans” (Trinity Laboratories, Inc., priority 2002, dated 2010)
